Drawing on patent US10596171B2, “Cap-dependent endonuclease inhibitors” (priority 2018, dated 2020), this text covers EC50 for 39 compounds.

The term EC50 denotes the midpoint of the concentration-response curve.

This test concerns influenza B virus. Kind of test: microbe, parasite or virus in culture. In kind it is cell-based. As to conditions: MDCK, 72 h, read-out: EC50 (reduce virus-induced CPE by 50%).

Each structure is given as a SMILES string.

In the case of `O=C1c2c(O)c(=O)ccn2N(C2c3ccccc3SCc3c(F)cccc32)CC12CC2` (stereo not drawn) [Compound 1, 1-(1-Fluoro-5,11-dihydro-10-thia-dibenzo[a,d]cyclohepten-5-yl)-5-hydroxy-3,3-cyclopropyl-2,3-dihydro-1H-pyrido[1,2-b]pyridazine-4,6-dione], the EC50 is 100 to 1000 nM.

As for `O=C1c2c(O)c(=O)ccn2N(C2c3ccccc3SCc3c2ccc(F)c3F)CC12CC2` (stereo not drawn) [Compound 2], the half-maximal effective concentration (EC50) is less than 100 nM. Regarding `O=C1c2c(O)c(=O)ccn2N(C2c3ccc(F)cc3CSc3c(Cl)cccc32)CC12CC2` (stereo not drawn) [Compound 3], the EC50 is less than 100 nM. In the case of `O=C1c2c(O)c(=O)ccn2N(C2c3ccc(Cl)cc3CSc3ccccc32)CC12CC2` (stereo not drawn) [Compound 4] it was less than 100 nM; in that of `O=C1c2c(O)c(=O)ccn2N(C2c3ccc(F)cc3CSc3c(F)cccc32)CC12CC2` (stereo not drawn) [Compound 5], less than 100 nM; in that of `Cc1cccc2c1SCc1cc(Cl)ccc1C2N1CC2(CC2)C(=O)c2c(O)c(=O)ccn21` (stereo not drawn) [Compound 6], 100 to 1000 nM.

Regarding `Cc1cccc2c1SCc1cc(F)ccc1C2N1CC2(CC2)C(=O)c2c(O)c(=O)ccn21` (stereo not drawn) [Compound 7], the EC50 is less than 100 nM.

As for `O=C1c2c(O)c(=O)ccn2N(C2c3ccc(F)cc3CSc3ccccc32)CC12CC2` (stereo not drawn) [Compound 8], the EC50 is less than 100 nM. In the case of `O=C1c2c(O)c(=O)ccn2N(C2c3ccccc3CSc3c(F)cccc32)CC12CC2` (stereo not drawn) [Compound 9] it was less than 100 nM; in that of `Cc1cccc2c1SCc1c(F)cccc1C2N1CC2(CC2)C(=O)c2c(O)c(=O)ccn21` (stereo not drawn) [Compound 10], 100 to 1000 nM; in that of `Cc1cccc2c1SCc1ccccc1C2N1CC2(CC2)C(=O)c2c(O)c(=O)ccn21` (stereo not drawn) [Compound 11], 100 to 1000 nM. In the case of `O=C1c2c(O)c(=O)ccn2N(C2c3cccc(F)c3CSc3c(Cl)cccc32)CC12CC2` (stereo not drawn) [Compound 12] it was 100 to 1000 nM. Consider `O=C1c2c(O)c(=O)ccn2N(C2c3ccccc3CSc3c(Cl)cccc32)CC12CC2` (stereo not drawn) [Compound 13], for which the half-maximal effective concentration (EC50) was 100 to 1000 nM.

For the compound `O=C1c2c(O)c(=O)ccn2N(C2c3ccc(Cl)cc3CSc3c(F)cccc32)CC12CC2` (stereo not drawn) [Compound 14], the 50% effective concentration (EC50) was less than 100 nM. The result for `O=C1c2c(O)c(=O)ccn2N(C2c3ccc(F)cc3COc3c(Cl)cccc32)CC12CC2` (stereo not drawn) [Compound 15] reads less than 100 nM; that for `Cc1cccc2c1SCc1c(ccc(F)c1F)C2N1CC2(CC2)C(=O)c2c(O)c(=O)ccn21` (stereo not drawn) [Compound 16], 100 to 1000 nM; that for `O=C1c2c(O)c(=O)ccn2N(C2c3ccc(F)c(F)c3CSc3c(F)cccc32)CC12CC2` (stereo not drawn) [Compound 17], less than 100 nM.

Turning to `O=C1c2c(O)c(=O)ccn2N(C2c3ccc(F)c(F)c3CSc3c(Cl)cccc32)CC12CC2` (stereo not drawn) [Compound 18], the EC50 lay in the range of 100 to 1000 nM. The result for `O=C1c2c(O)c(=O)ccn2N(C2c3ccccc3SCc3c2ccc(Cl)c3F)CC12CC2` (stereo not drawn) [Compound 19] reads 100 to 1000 nM. Take `CC1CC12CN(C1c3ccccc3SCc3c1ccc(F)c3F)n1ccc(=O)c(O)c1C2=O` (stereo not drawn) [Compound 20]: the half-maximal effective concentration (EC50) fell in the range of 100 to 1000 nM.

Consider `CC1N(C2c3ccccc3SCc3c2ccc(F)c3F)n2ccc(=O)c(O)c2C(=O)C12CC2` (stereo not drawn) [Compound 21], for which the 50% effective concentration (EC50) lay within 100 to 1000 nM. For `CCC1N(C2c3ccccc3SCc3c2ccc(F)c3F)n2ccc(=O)c(O)c2C(=O)C12CC2` (stereo not drawn) [Compound 22], the EC50 was in the range of 100 to 1000 nM. As for `O=C1c2c(O)c(=O)ccn2N(C2c3ccc(Cl)c(F)c3CSc3c(Cl)cccc32)CC12CC2` (stereo not drawn) [Compound 23], the EC50 lay in the range of 100 to 1000 nM. For the compound `O=C1c2c(O)c(=O)ccn2N(C2c3ccc(Cl)c(F)c3CSc3c(F)cccc32)CC12CC2` (stereo not drawn) [Compound 24], the half-maximal effective concentration (EC50) was less than 100 nM.

Regarding `C=CC1N(C2c3ccccc3SCc3c2ccc(F)c3F)n2ccc(=O)c(O)c2C(=O)C12CC2` (stereo not drawn) [Compound 25], the half-maximal effective concentration (EC50) was in the range of 100 to 1000 nM. In the case of `CC1N(C2c3ccc(F)c(F)c3CSc3c(F)cccc32)n2ccc(=O)c(O)c2C(=O)C12CC2` (stereo not drawn) [Compound 26] it was 100 to 1000 nM. The result for `Cc1cccc2c1SCc1c(ccc(F)c1F)C2N1C(C)C2(CC2)C(=O)c2c(O)c(=O)ccn21` (stereo not drawn) [Compound 27] reads 100 to 1000 nM; that for `Cc1cc(=O)c(O)c2n1N(C1c3ccccc3SCc3c1ccc(F)c3F)CC1(CC1)C2=O` (stereo not drawn) [Compound 28], 100 to 1000 nM; that for `O=C1c2c(O)c(=O)ccn2N(C2c3ccccc3SCc3cccc(Br)c32)CC12CC2` (stereo not drawn) [Compound 29], 100 to 1000 nM.

Regarding `Cc1cc(=O)c(O)c2n1N(C1c3ccc(F)c(F)c3CSc3c(F)cccc31)CC1(CC1)C2=O` (stereo not drawn) [Compound 30], the 50% effective concentration (EC50) lay within 100 to 1000 nM. Consider `Cc1cccc2c1SCc1c(ccc(F)c1F)C2N1CC2(CC2)C(=O)c2c(O)c(=O)cc(C)n21` (stereo not drawn) [Compound 31], for which the EC50 was 100 to 1000 nM.

Consider `CCOC(=O)C1CC12CN(C1c3ccccc3SCc3c1ccc(F)c3F)n1ccc(=O)c(O)c1C2=O` (stereo not drawn) [Compound 32], for which the EC50 was in the range of 100 to 1000 nM. The result for `O=C(O)C1CC12CN(C1c3ccccc3SCc3c1ccc(F)c3F)n1ccc(=O)c(O)c1C2=O` (stereo not drawn) [Compound 33] reads 100 to 1000 nM. The result for `O=C1c2c(O)c(=O)ccn2N(C2c3ccccc3SCc3c2ccc(F)c3F)CC12CC2COCc1ccccc1` (stereo not drawn) [Compound 34] reads 100 to 1000 nM. The result for `CC1CC12CN(C1c3ccc(F)c(F)c3CSc3c(F)cccc31)n1ccc(=O)c(O)c1C2=O` (stereo not drawn) [Compound 35] reads less than 100 nM; that for `Cc1cccc2c1SCc1c(ccc(F)c1F)C2N1CC2(CC2C)C(=O)c2c(O)c(=O)ccn21` (stereo not drawn) [Compound 36], 100 to 1000 nM; that for `CCC1CC12CN(C1c3ccccc3SCc3c1ccc(F)c3F)n1ccc(=O)c(O)c1C2=O` (stereo not drawn) [Compound 37], less than 100 nM. Regarding `COCC1CC12CN(C1c3ccccc3SCc3c1ccc(F)c3F)n1ccc(=O)c(O)c1C2=O` (stereo not drawn) [Compound 38], the EC50 was less than 100 nM. In the case of `[2H]c1c([2H])c([2H])c2c(c1[2H])SCc1c(ccc(F)c1F)[C@@H]2N1CC2(CC2)C(=O)c2c(O)c(=O)ccn21` [Compound 39] it was less than 100 nM.
